We go through 1 molecule from patent US9717222B2, “Taste independent brain nutrient sensor that mediates hunger” (New York University, priority 2014, dated 2017).

“Also recorded” adds a separate entry of the source.

One assay deals with hemolymph glycemia. Nature of the assay: Prandial rise of hemolymph glycemia after glucose feeding with or without phlorizin. Type of assay: in vivo, Drosophila melanogaster. The following applies: 18-hour starved flies fed 100 mM glucose with 10 mM phlorizin for 20 minutes (FIG. 1b). The procedure:
Glycogen and glycemia were measured as previously described^6. For the prandial rise of hemolymph glycemia, flies were starved for 18 hours, and then fed with 100 mM glucose (with or without 10 mM phlorizin) for 15-20 minutes. Their hemolymph was immediately collected and measured.

A further assay relates to Drosophila melanogaster. In words: Two-choice feeding assay (food preference). In kind it is in vivo. The following applies: for food choice: 200 mM L-glucose+phlorizin versus 50 mM D-glucose+phlorizin: 18 hours food deprivation (FIG. 4); for food choice: glucose mixed with phlorizin versus plain agar: 100 mM glucose. The procedure:
Feeding assays were performed as previously described^6 using 50 flies per two-choice arena. Briefly, ˜50 4-8 days old male flies were starved in an empty vial with wet Kim wipe for 5 or 18 hours, and then given a choice between two sugars, or a sugar and plain agar for 2 hours. Food preference was determined as percent preference index (PI %) by scoring the abdomen color of each fly: % PI=(#eaten food1+0.5×#eaten both)−(#eaten food2+0.5×#eaten both)]/(total #flies eaten) All sugars, except for L-glucose (Carbosynth), were from Sigma. For FIG. 1c, 10 mM phlorizin (Sigma) was added to warm agar with or without sugar. For the experiments in the dark, individual plates were wrapped in aluminum foil and then placed in a dark drawer while tested flies were making a choice between the two substrates. For the neural silencing experiments, flies bearing UAS-Kir2.1, Ptubulin-GAL80^ts, and a GAL4 driver were treated as described^17. These flies were raised at 18° C., incubated at 29° C. for 40 hours, starved at 29° C. for next 18 hrs and then tested in the two-choice assay at room temperature. For a negative control, the flies were raised and starved at 18° C., and tested at room temperature. Because metabolism is slower at 18° C. than at 25-29° C., the flies at 18° C. needed to be starved for a longer period. Thus, we determined that the 18 hours of starvation at 25-29° C. is equivalent to the 50-60 hours of starvation at 18° C. Also, see FIG. 11.

`O=C(CCc1ccc(O)cc1)c1c(O)cc(O)cc1O[C@@H]1O[C@H](CO)[C@@H](O)[C@H](O)[C@H]1O` [Phlorizin]: the “prandial rise in hemolymph glycemia” value in the assay with hemolymph glycemia is “preventing a prandial rise in glycemia”. Besides, the “food choice: 200 mM L-glucose+phlorizin versus 50 mM D-glucose+phlorizin” value was “chose the more concentrated (sweeter) L-glucose; also recorded: chose the sweeter L-glucose” in the assay on Drosophila melanogaster (control flies); “failed to discriminate between Lglucose+phlorizin and D-glucose+phlorizin; also recorded: showed equal preference for these two enantiomers” in the assay on Drosophila melanogaster (taste-blind (poxnΔM22-B5) and sugar-blind (Gr5a;Gr64a) mutants). For the same molecule, the “food choice: glucose mixed with phlorizin versus plain agar” value with Drosophila melanogaster (control poxnΔM22-B5;SuperA158, 18 h food deprived, 10 mM phlorizin (FIG. 1c)) was “can distinguish glucose mixed with phlorizin from agar”; with Drosophila melanogaster (taste-blind poxnΔM22-B5, 18 h food deprived, 10 mM phlorizin (FIG. 1c)) it was “failed to consume glucose mixed with phlorizin”. The “food choice: fructose mixed with phlorizin versus plain agar” value in the assay with Drosophila melanogaster (taste-blind poxnΔM22-B5, 18 h food deprived, 100 mM fructose, 10 mM phlorizin (FIG. 1c)) is given as “able to detect the nutritional value of fructose mixed with phlorizin”.
